The source of these data is publication PMC6934184, “Selective DNA-PKcs inhibition extends the therapeutic index of localized radiotherapy and chemotherapy” (The Journal of Clinical Investigation, 2019).

This experiment concerns the target T1, DDR2 (Homo sapiens, UniProt Q16832).
T1 construct: purchased Thermo Fisher Scientific (Life Technologies) SelectScreen
The experiment in a line: SelectScreen LanthaScreen. It counts as binding. As to conditions: read-out: % displacement. Summed up:
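Percent values come from Thermo SelectScreen profiling of NU5455, combining activity and binding assays. CSF1R was run in Z'LYTE format at Km app ATP, and CAMK1 in Adapta format with ATP listed at 10.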

T1 sequence (Q16832 22-855): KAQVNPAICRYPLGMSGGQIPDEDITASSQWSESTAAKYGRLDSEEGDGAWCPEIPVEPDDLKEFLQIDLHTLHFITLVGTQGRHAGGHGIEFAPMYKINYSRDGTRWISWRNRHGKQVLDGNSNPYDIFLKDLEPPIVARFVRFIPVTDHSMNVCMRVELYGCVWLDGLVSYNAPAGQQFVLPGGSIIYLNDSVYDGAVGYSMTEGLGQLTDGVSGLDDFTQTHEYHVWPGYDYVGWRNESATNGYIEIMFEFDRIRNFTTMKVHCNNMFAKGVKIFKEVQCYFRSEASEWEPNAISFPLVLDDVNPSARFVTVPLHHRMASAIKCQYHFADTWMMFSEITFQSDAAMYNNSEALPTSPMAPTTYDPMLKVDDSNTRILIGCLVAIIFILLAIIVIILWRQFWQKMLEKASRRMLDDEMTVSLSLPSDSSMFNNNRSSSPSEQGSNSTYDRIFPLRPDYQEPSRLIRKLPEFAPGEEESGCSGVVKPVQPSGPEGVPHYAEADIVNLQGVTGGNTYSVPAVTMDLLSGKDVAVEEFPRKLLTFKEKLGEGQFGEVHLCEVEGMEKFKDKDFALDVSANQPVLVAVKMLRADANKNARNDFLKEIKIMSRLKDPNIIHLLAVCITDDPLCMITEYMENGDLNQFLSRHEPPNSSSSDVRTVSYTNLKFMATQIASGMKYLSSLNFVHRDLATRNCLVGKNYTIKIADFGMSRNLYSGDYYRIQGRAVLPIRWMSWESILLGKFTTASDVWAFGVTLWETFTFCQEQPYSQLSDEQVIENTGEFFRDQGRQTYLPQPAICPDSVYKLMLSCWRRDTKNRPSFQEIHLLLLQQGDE

As to `CN(C(=O)CN1CCOCC1)c1ccc2sc3c(-c4cccc5c(=O)cc(N6CC7CCC(C6)O7)oc45)cccc3c2c1` [NU5455], the inhibition at 1 µM was 0.7%.
